Assay [1] has as its system E. coli pCSS123/JM103 cells. As to the kind of experiment: Change in plasmid copy number: total DNA from heat-treated cells, agarose gel. The format is cell-based, Escherichia coli. The note with it: 42° C. for one hour; tested at 0, 1, 10 and 100 μg/ml; FIG. 8. How it is done:
The plasmid pCSS123 described in the instant invention is a runaway-replication plasmid, in which a change in copy number can be obtained by shifting the temperature (FIG. 8). The effect of nalidixic acid, an agent known to inhibit DNA replication of cell DNA and especially of plasmid pCSS123 DNA, is shown in FIG. 8.
E. coli pCSS123/JM103 cells were cultivated in 20 ml of 2×TY at 30° C. in four Erlenmeyer bottles until the absorbance measured at 600 nm was 0.3. Nalidixic acid, a known inhibitor of DNA replication, was added to a final concentration of 0, 1, 10 and 100 μg/ml. Parallel samples of 1.5 ml from each bottle were immediately withdrawn to 15 ml tubes and kept at 30° C. for 20 min. The tubes were transferred to 42° C. for one hour and the bottles were left at 30° C. After one hour, both the tubes and the bottles were kept for an additional hour at 30° C. in a shaker. Total-DNA was extracted from 1.5 ml of culture.
Cells were centrifuged and the pellets were suspended in 500 μl 50 mM TRIS-HC1, pH 8.0, 50 mM EDTA. Cells were kept in an ice bath for 30 min and 50 μl of lysozyme (10 mg/ml) was added and kept in an ice bath for 45 min. One hundred μl of STEP solution (0.5% SDS, 50 mM TRIS-HC1, pH 7.5, 0.4 M EDTA) was added and kept at 50° C. for 60 min. After this, 600 μl of phenol was added and the tubes were gently mixed for 5 min and centrifuged 10 min at 12000×g. […]

In assay [2] the test system is E. coli pCSS123/JM103 cells. As to the kind of experiment: Light production by cells with runaway-replication plasmid pCSS123. The format is cell-based, Escherichia coli. The note with it: 20 min at 30° C., 42° C. one hour, IPTG 1 mM; FIG. 9a. How it is done: E. coli pCSS123/JM103 cells grown overnight were diluted 1:1000. Diluted cells in 2×TY were taken (0.5 ml) and various amounts of antibiotics or other toxic substances were added. These solutions were incubated 20 min at 30° C. After this the samples were transferred to 42° C. for one hour. Each tube was thereafter incubated at 30° C. in a waterbath and IPTG was added to 1 mM and n-decanal to 0.01%. The tubes were transferred to an automated light-gathering device, i.e., luminometer 1251 (LKB-Wallac, Turku, Finland) whose measuring chamber had been equilibrated to 30° C. Measurement of light emission by the cells was done with the auto-mode program so that each tube was automatically measured every two minutes. Data were collected in the memory of the computer for later analyses. […] For clarity reasons only two concentrations of chloramphenicol were compared to the untreated control.

Assay [3] relates to E. coli pCSS123/BW322. The note with it: heat induced at 42° C. for 25 minutes; FIG. 9d. How it is done:
Freeze-dried E. coli pCSS123/BW322 were reconstituted with 1.0 ml of 2×TY and 45 μl of this was diluted 1:10 with 2×TY. Five μl of trimethoprim dilutions were added and kept at room temperature for 25 minutes. Cells were heat induced at 42° C. for 25 minutes and equilibrated to 30° C. in a water bath for 10 minutes. n-decanal was added to 0.001% and light production was measured using a LKB-Wallac 1250 manual luminometer. Same concentrations of trimethoprim together with reconstituted, freeze-dried cells which were not heat-treated acted as controls.

Assay [4] concerns E. coli pCSS112/K-12 HI trp(c1857). The experiment in a line: Light production, bacterial luciferase under PL promoter (pCSS112). The format is cell-based, Escherichia coli. The note with it: concentration in the measuring cuvette; 20 min at 30° C., 42° C. for 10 minutes. How it is done:
A comparison is made between plasmids where the expression of bacterial luciferase genes are controlled by either lac (slow) or PL promoter (fast) promoters. E. coli clone pCSS112/K-12 HI trp(c1857) was grown overnight in 2×TY medium containing ampicillin 100 μg/ml. After this a suitable dilution was made in HBSS-buffer or in milk and 500 μl of this was added to 3 ml luminometer tubes. The tubes were equilibrated to 30° C. and different amounts of various toxic substances were added to tubes. Tubes were kept at 30° C. for 20 min, after which the temperature was shifted to 42° C. for 10 minutes. Thereafter the tubes were removed to luminometer chamber which had been equilibrated to 30° C. for automated measurement. As a comparison, an E. coli JM103 clone containing plasmid pCSS108 was used as a control. The control cells were treated similarly but without the heat-shock step. Messanger RNA and protein synthesis were induced in the control cells by adding IPTG to 1 mM. […] In case of chloramphenicol, the kinetics of light production have been shown in FIG. 11a when plasmid pCSS112 in E. coli K-12 HI trp(c1857) strain is used.
The following examples show detection of substances affecting other biosynthetic routes and metabolism of cells. […]
The following figures show the effect of each tested substance as measured by light production. […]

Assay [5] relates to metallothioneins. The note with it: cadmium added to growth medium to 4×10^−6 molar; eucaryotic cells; cited from earlier work.
Assay [6] concerns B. subtilis 1A40 cells. The experiment in a line: Light emission, click beetle luciferase (pCSS962), IPTG induced. The format is cell-based, Bacillus subtilis. The note with it: incubation 2 hours at 30° C.; FIG. 11b. How it is done:
Using this construction, the production of luciferase can be turned on in B. subtilis by simple addition of IPTG, which binds to the lac repressor coded by the helper plasmid pBL1 present in the same cell. After IPTG binds to the repressor, the repressor cannot bind to the DNA region between phage T5 promoter and the luciferase gene thus allowing the expression of luciferase. Cells containing both plasmids were cultured overnight in 2×TY containing erythromycin (10 μg/ml, to keep pBL1 in the cell) and kanamycin (10 μg/ml, to keep pCSS952 in the cell). A suitable dilution was made and different amounts of antibiotic were added to the cells. After an incubation period of 2 hours at 30° C., the tubes were measured for light emission after addition of 1 mM D-luciferin substrate in 0.1 M Na-citrate. As shown in FIG. 11b a low amount of 0.1 ug/ml ampicillin and even lower amounts of oxytetracyclin and streptomycin can be detected.

Each structure is given as a SMILES string.

For the molecule `CCn1cc(C(=O)O)c(=O)c2ccc(C)nc21` [nalidixic acid], the “amount of nalidixic acid in whose presence DNA content was unaffected (no heat-induced increase of plasmid DNA)” value in assay [1] was at least 1 µg. For the same molecule, the “amount that can be detected very quickly by light emission” value in assay [2] turned out to be 2 µg.
As for `COc1cc(Cc2cnc(N)nc2N)cc(OC)c1OC` [trimethoprim], the “sensitivity of detection by light production” value in assay [3] is on record as “sensitivity of the assay is very high”.
As to `O=C(N[C@H](CO)[C@H](O)c1ccc([N+](=O)[O-])cc1)C(Cl)Cl` [chloramphenicol], in assay [4], the “lowest concentration giving differences in measured activity (light production) from the start of measurement” value worked out at 0.1 µg/mL.
Take `[Cd]` [cadmium]: the “increase in the production of metallothioneins” value in assay [5] was “over fifty”.
`CC1(C)S[C@@H]2[C@H](NC(=O)[C@H](N)c3ccccc3)C(=O)N2[C@H]1C(=O)O` [ampicillin]: the “amount that can be detected by light emission” value in assay [6] came to 0.1 µg/mL.

The record behind these values is US6475719B1, “Determination of factors affecting gene regulation and/or gene replication” (priority 1989, dated 2002).
